Structures can show the parent of a compound that is named as a salt.
tested on: SRS-A (Slow Reacting Substance of Anaphylaxis) synthesis in rat polymorpholeukocyte (PMN); test: Inhibitory Activity of SRS-A synthesis in rat polymorpholeukocyte (PMN) using the calcium ionophore A23187 (i-LTC4 by radioimmunoassay); assay type: cell-based, rat (male Sprague-Dawley); conditions: 10 μM A23187, 15 min, 37° C., hydrochloride
Protocol: Test I: Inhibitory Activity of SRS-A (Slow Reacting Substance of Anaphylaxis) synthesis in rat polymorpholeukocyte (PMN) of using the calcium ionophore Male Sprague-Dawley rats weighing 250-300 g were anesthetized with ether and each was injected intraperitoneally with 20 ml of 0.1% clycogen (from Oyster). After 20 hours the rats were sacrificed and PMN were recovered in rinse of the peritoneal cavity with 10 ml Dulbeccos PBS (components in g/L: CaCl2 0.1, KH2 PO4 0.2, MgCl2.6H2 O 0.1, NaCl 8.0, Na2 HPO4.7H2 O 2.16; pH7.4). These rinses were filtered through nylon wool filter and centrifuged for 5 min at 1000 xg. The pellet was suspended in Dulbeccos PBS and centrifuged for 5 min at 1000 xg. The pellet was resuspended in Dulbeccos PBS and adjusted the cell concentration to 10^7 cells/ml with Dulbeccos PBS. Samples were dissolved in ethanol and dispersed in Dulbeccos PBS to give a concentration of 10^-10 -10^-5 M Antibiotic A23187; calcium ionophor ([…] Diagnostics) (hereinafter referred to A23187) in DMSO(10mM) was diluted with Dulbeccos PBS to give the concentration of 1 mM. Aliquots of the cell suspension (1×10^7 cells/ml, 0.98 ml) were equilibrated for 30 min at 37° C. Solution of sample(10 μl) was added and incubated for 15 min at 37° C. before the addition of 10 μl of A23187 solution. Thus the final incubation volume of 1 ml contained approximately 1×10^7 cells, 10^-10 -10^-5 M samples and 10 μM A23187. Incubation with A23187 were continued for 15 min at 37° C. The reactions were terminated by setting the assay tubes in ice bath to chill as rapidly as possible to 4° C. The test tubes were centrifuged at 1500 xg for 5 min at 4° C. and decanted the supernatants into the tubes and kept cold prior to assaying. The concentration of i-LTC4 in the cell-free supernatants from the incubations were determined by specific radioimmunoassay. The mean values of i-LTC4 (these incubations were carried out in duplicate) of each sample were calculated and the effect of samples on the synthesis of the leukotrienes was presented as a percentage of the value in the absence of samples.

Row | Structure (SMILES) | IC50
1 | CCCCC1(CCCC)CCc2c(OCc3ccc4ccccc4n3)cccc2C1O (single isomer, unassigned; (+)) [Example 41, (+)-2,2-dibutyl-5-(2-quinolylmethoxy)-1,2,3,4-tetrahydro-1-naphthol hydrochloride] | 5.6 nM

same assay, conditions: Rattus norvegicus, 0.25 h, 10 μM A23187, 15 min, 37° C.

Row | IC50 | Structure (SMILES)
2 | 280 nM | CCCCC1(CCCC)Cc2c(OCc3ccc4ccccc4n3)cccc2C1=O [Example 5, 2,2-Dibutyl-4-(2-quinolylmethoxy)-1-indanone hydrochloride]
3 | 81 nM | CCCCC1(CCCC)CCc2c(OCc3ccccn3)cccc2C1O (stereo not drawn) [Example 7, 2,2-dibutyl-5-(2-pyridylmethoxy)-1,2,3,4-tetrahydro-1-naphthol]
4 | 160 nM | CCCCC1(CCCC)CCc2c(OCc3ccccc3C(N)=O)cccc2C1O (stereo not drawn) [Example 8, 2,2-dibutyl-5-(2-carbamoylbenzyloxy)-1,2,3,4-tetrahydro-1-naphthol]
5 | 50 nM | CCCCC1(CCCC)CCc2c(OCc3nc4ccccc4s3)cccc2C1O (stereo not drawn) [Example 11, 2,2-Dibutyl-5-(2-benzothiazolylmethoxy)-1,2,3,4-tetrahydro-1-naphthol]
6 | 120 nM | CCCCC1(CCCC)CCc2c(OCc3ccncc3)cccc2C1O (stereo not drawn) [Example 12, 2,2-Dibutyl-5-(4-pyridylmethoxy)-1,2,3,4-tetrahydro-1-naphthol]
7 | 15 nM | CCCC1(CCC)CCc2c(OCc3ccc4ccccc4n3)cccc2C1O (stereo not drawn) [Example 13, 2,2-Dipropyl-5-(2-quinolylmethoxy)-1,2,3,4-tetrahydro-1-naphthol]
8 | 42 nM | CCCCCC1(CCCCC)CCc2c(OCc3ccc4ccccc4n3)cccc2C1O (stereo not drawn) [Example 14, 2,2-Dipentyl-5-(2-quinolylmethoxy)-1,2,3,4-tetrahydro-1-naphthol]
9 | 210 nM | CCCCC1(CCCC)Cc2c(OCc3ccc4ccccc4n3)cccc2C1O (stereo not drawn) [Example 15, 2,2-Dibutyl-4-(2-quinolylmethoxy)-1-indanol]
10 | 370 nM | CCCCC1(CCCC)CCc2c(OCc3ccc(C(N)=O)cc3)cccc2C1O (stereo not drawn) [Example 16, 2,2-Dibutyl-5-(4-carbamoylbenzyloxy)-1,2,3,4-tetrahydro-1-naphthol]
11 | 1900 nM | CCCCC1CCc2c(OCc3ccc4ccccc4n3)cccc2C1=O (stereo not drawn) [Example 17, 2-Butyl-3,4-dihydro-5-(2-quinolylmethoxy)-1(2H)-naphthalenone]
12 | 1100 nM | CCCCC1(CCCC)CCc2ccc(OCc3ccc4ccccc4n3)cc2C1=O [Example 19, 2,2-Dibutyl-3,4-dihydro-7-(2-quinolylmethoxy)-1(2H)-naphthalenone]
13 | 83 nM | CCCCC1CCc2c(OCc3ccc4ccccc4n3)cccc2C1O (stereo not drawn) [Example 20, 2-Butyl-5-(2-quinolylmethoxy)-1,2,3,4-tetrahydro-1-naphthol]
14 | 430 nM | CCCCC1CCc2ccc(OCc3ccc4ccccc4n3)cc2C1O (stereo not drawn) [Example 21, 2-butyl-7-(2-quinolylmethoxy)-1,2,3,4-tetrahydro-1-naphthol hydrochloride]
15 | 860 nM | CCCCC1(CCCC)CCc2ccc(OCc3ccc4ccccc4n3)cc2C1O (stereo not drawn) [Example 22, 2,2-Dibutyl-7-(2-quinolylmethoxy)-1,2,3,4-tetrahydro-1-naphthol hydrochloride]
16 | 1100 nM | CCCCC1CCc2ccc(OCc3ccc4ccccc4n3)cc2C1=O (stereo not drawn) [Example 23, 2-Butyl-3,4-dihydro-7-(2-quinolylmethoxy)-1(2H)-naphthalenone hydrochloride]
17 | 620 nM | CCCCC1(CCCC)CCc2c(OCc3ccc4ccccc4n3)cccc2C1=O [Example 25, 2,2-Dibutyl-3,4-dihydro-5-(2-quinolylmethoxy)-(1(2H)-naphthalenone hydrochloride]
18 | 210 nM | CCCCC1(CCCC)CCc2c(OCc3nc4ccccc4n3C)cccc2C1O (stereo not drawn) [Example 26, 2,2-Dibutyl-5-[2-(1-methylbenzimidazolyl)methoxy]-1,2,3,4-tetrahydro-1-naphthol]
19 | 300 nM | CCCCC1(CCCC)CCc2c(OCC3=C(C)C(=O)c4ccccc4C3=O)cccc2C1O (stereo not drawn) [Example 27, 2,2-Dibutyl-5-[2-(3-methyl-1,4-naphthalenedionyl)methoxy]-1,2,3,4-tetrahydro-1-naphthol]
20 | 14 nM | CCCCC1(CCCC)CCc2c(OCc3ccc4ccccc4n3)ccc(Cl)c2C1O (stereo not drawn) [Example 33, 8-chloro-2,2-dibutyl-5-(2-quinolylmethoxy)-1,2,3,4-tetrahydro-1-naphthol]
21 | 2.2 nM | CCCCC1(CCCC)CCc2c(OCc3ccc4ccccc4n3)ccc(F)c2C1O (stereo not drawn) [Example 34, 2,2-Dibutyl-8-fluoro-5-(2-quinolylmethoxy)-1,2,3,4-tetrahydro-1-naphthol]
22 | 6.5 nM | CCCCC1(CCCC)CCc2c(OCc3ccc4ccccc4n3)ccc(C)c2C1O (stereo not drawn) [Example 35, 2,2-Dibutyl-8-methyl-5-(2-quinolylmethoxy)-1,2,3,4-tetrahydro-1-naphthol]
23 | 120 nM | CCCCC1(CCCC)CCc2c(OCc3ccc4ccccc4n3)ccc(O)c2C1O (stereo not drawn) [Example 36, 2,2-Dibutyl-8-hydroxy-5-(2-quinolylmethoxy)-1,2,3,4-tetrahydro-1-naphthol hydrochloride]
24 | 2.5 nM | CC(C)CC1(CC(C)C)CCc2c(OCc3ccc4ccccc4n3)cccc2C1O (stereo not drawn) [Example 37, 2,2-Diisobutyl-5-(2-quinolylmethoxy)-1,2,3,4-tetrahydro-1-naphthol]
25 | 360 nM | CCCCC1(CCCC)CCc2c(OCc3ccc4ccccc4n3)ccc(O)c2C1=O [Example 38, 2,2-Dibutyl-3,4-dihydro-8-hydroxy-5-(2-quinolylmethoxy)-1(2H)-naphthalenonehydrochloride]
26 | 640 nM | CCCCC1(CCCC)CCc2c(OCc3ccc4ccccc4n3)ccc(C)c2C1=O [Example 39]

Row | Structure (SMILES) | IC50
27 | CCCCC1(CCCC)CCc2c(OCc3ccc4ccccc4n3)cccc2C1O (stereo not drawn) [Example 6, 2,2-dibutyl-5-(2-quinolylmethoxy)-1,2,3,4-tetrahydro-1-naphthol] | 8.7 nM
